Changes are numbered by the printed parent chain.

The target of assay [1] is T1, creatine transporter (CrT) (Mus musculus, UniProt Q8VBW1).
T1 construct: these cells express endogenous CrT; endogenous in cells; host or cells: HL-1 cells (mouse atrial cardiomyocyte-like)
T1 sequence (Q8VBW1 1-635): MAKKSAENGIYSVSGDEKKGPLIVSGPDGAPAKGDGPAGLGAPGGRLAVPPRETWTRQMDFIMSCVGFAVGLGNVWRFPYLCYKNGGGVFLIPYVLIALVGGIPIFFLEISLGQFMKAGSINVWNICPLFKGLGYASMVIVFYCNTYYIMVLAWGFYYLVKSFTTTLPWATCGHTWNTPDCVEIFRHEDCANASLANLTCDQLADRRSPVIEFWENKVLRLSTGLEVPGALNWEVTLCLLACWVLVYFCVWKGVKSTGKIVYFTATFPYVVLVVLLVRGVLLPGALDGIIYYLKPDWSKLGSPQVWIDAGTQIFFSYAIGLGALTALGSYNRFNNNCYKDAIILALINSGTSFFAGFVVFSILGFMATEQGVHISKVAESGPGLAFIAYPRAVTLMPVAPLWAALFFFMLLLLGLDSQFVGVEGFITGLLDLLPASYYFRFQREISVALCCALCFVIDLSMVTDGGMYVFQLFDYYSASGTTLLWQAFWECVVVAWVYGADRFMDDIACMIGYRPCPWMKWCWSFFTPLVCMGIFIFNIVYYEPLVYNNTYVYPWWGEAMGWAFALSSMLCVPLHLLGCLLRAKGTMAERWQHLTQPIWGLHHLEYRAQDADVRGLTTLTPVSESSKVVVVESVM
The assay can be described thus: 14C-labelled creatine uptake in HL-1 cells expressing endogenous CrT. Type of assay: cell-based. The note with it: HL1 cells incubated with 250 μM creatine; increasing extracellular β-GPA concentration; FIG. 5B.
Description: Cells (1×10^5 cells) were plated into 24-well-plates, and incubated for 18 hours to form monolayers. Each well was spiked with 10 μl (37 kBq) ^14C-creatine, 500 μM of non-radiolabelled Cr, and 30 μM of test compound (β-guanidinopropionic acid) (performed in triplicate). After incubation at 37° C. for 60 min (95% air, 5% CO2), media was aspirated, cells solubilised and lysed using PBS/TritonX-100. A scintillation counter measures signal attributed to intracellular radiolabel, with Cr uptake estimated against known standards. Control wells contain no test compound to measure normal background uptake, and control wells containing only cells are used for protein quantification. […] HL-1 cells that are derived from mouse atrial tumour cells and have a beating cardiomyocyte-like phenotype. […] Changes in creatine uptake were measured using the ^14C screen described above.

Assay [2] concerns the target T2, creatine transporter (CrT) (Homo sapiens, UniProt P48029).
T2 construct: expressed in transfected cells
T2 sequence (P48029 1-635): T1 sequence (Q8VBW1 1-635) with V24A, S25P, A38V, A42T, T223G, T368A, I539V
The assay can be described thus: 14C-labelled creatine uptake in fibroblast 3T3 cells that stably express the CrT. In kind it is cell-based. The settings on record: 3T3 cells stably expressing CrT; increasing extracellular β-GPA concentration; 14C-creatine, 37° C. for 60 min; FIG. 5B.
Description: We have developed a sensitive and specific assay for measuring ^14C-labelled Cr uptake in cell culture using fibroblast 3T3 cells that stably express the CrT. Cells (1×10^5 cells) were plated into 24-well-plates, and incubated for 18 hours to form monolayers. […] After incubation at 37° C. for 60 min (95% air, 5% CO2), media was aspirated, cells solubilised and lysed using PBS/TritonX-100. A scintillation counter measures signal attributed to intracellular radiolabel, with Cr uptake estimated against known standards. Control wells contain no test compound to measure normal background uptake, and control wells containing only cells are used for protein quantification.

Regarding `N=C(N)NCCC(=O)O` [β-GPA, β-guanidinopropionic acid], the creatine uptake result in assay [1] and in assay [2] was “dose-dependent inhibition of creatine uptake” in each case.

For the origin of these results see patent US20120276012A1, “Method of Treatment and Screening Method” (ISIS INNOVATION LIMITED, priority 2009, published 2012).
